In article PMC10178848, “Modulating fast skeletal muscle contraction protects skeletal muscle in animal models of Duchenne muscular dystrophy” (The Journal of Clinical Investigation, 2023):
Where two headings read alike, the source gives them in different places.

Tested on: GRMD plasma proteins
Assay type: in vivo, dog
[1] = EDG-5506 treatment to GRMD baseline, Decreased in GRMD

O=c1ccc(-c2cnc(OCC(F)(F)F)nc2)nn1Cc1cncc(F)c1 [EDG-5506]
Change from GRMD Baseline (fraction) (3-hydroxy-3-methylglutaryl-coenzyme A reductase (HMGCR), EDG-5506 treatment to GRMD baseline): 0.149 fraction
Change from GRMD Baseline (fraction) (3-hydroxy-3-methylglutaryl-coenzyme A reductase (HMGCR), Post-Treatment to GRMD baseline): -0.0053 fraction
Change from GRMD Baseline (fraction) (Annexin A5 (ANXA5), EDG-5506 treatment to GRMD baseline): 0.0604 fraction
Change from GRMD Baseline (fraction) (Annexin A5 (ANXA5), Post-Treatment to GRMD baseline): -0.0309 fraction
Change from GRMD Baseline (fraction) (Apolipoprotein M (APOM), EDG-5506 treatment to GRMD baseline): 0.1027 fraction
Change from GRMD Baseline (fraction) (Apolipoprotein M (APOM), Post-Treatment to GRMD baseline): -0.1149 fraction
Change from GRMD Baseline (fraction) (Bactericidal permeability-increasing protein (BPI), EDG-5506 treatment to GRMD baseline): 0.0745 fraction
Change from GRMD Baseline (fraction) (Bactericidal permeability-increasing protein (BPI), Post-Treatment to GRMD baseline): 0.1503 fraction
Change from GRMD Baseline (fraction) (Basigin (BSG), EDG-5506 treatment to GRMD baseline): 0.1541 fraction
Change from GRMD Baseline (fraction) (Basigin (BSG), Post-Treatment to GRMD baseline): -0.07 fraction
Change from GRMD Baseline (fraction) (Brain-derived neurotrophic factor (BDNF), EDG-5506 treatment to GRMD baseline): 0.0859 fraction
Change from GRMD Baseline (fraction) (Brain-derived neurotrophic factor (BDNF), Post-Treatment to GRMD baseline): -0.07 fraction
Change from GRMD Baseline (fraction) (Calcium/calmodulin-dependent 3',5'-cyclic nucleotide phosphodiesterase 1A (PDE1A), EDG-5506 treatment to GRMD baseline): 0.0363 fraction
Change from GRMD Baseline (fraction) (Calcium/calmodulin-dependent 3',5'-cyclic nucleotide phosphodiesterase 1A (PDE1A), Post-Treatment to GRMD baseline): -0.0044 fraction
Change from GRMD Baseline (fraction) (Carbohydrate sulfotransferase 15 (CHST15), EDG-5506 treatment to GRMD baseline): 0.0872 fraction
Change from GRMD Baseline (fraction) (Carbohydrate sulfotransferase 15 (CHST15), Post-Treatment to GRMD baseline): -0.1346 fraction
Change from GRMD Baseline (fraction) (Carbonic anhydrase 7 (CA7), EDG-5506 treatment to GRMD baseline): 0.1779 fraction
Change from GRMD Baseline (fraction) (Carbonic anhydrase 7 (CA7), Post-Treatment to GRMD baseline): 0.1249 fraction
Change from GRMD Baseline (fraction) (Cathepsin G (CTSG), EDG-5506 treatment to GRMD baseline): 0.0969 fraction
Change from GRMD Baseline (fraction) (Cathepsin G (CTSG), Post-Treatment to GRMD baseline): 0.1704 fraction
Change from GRMD Baseline (fraction) (Cathepsin H (CTSH), EDG-5506 treatment to GRMD baseline): 0.1349 fraction
Change from GRMD Baseline (fraction) (Cathepsin H (CTSH), Post-Treatment to GRMD baseline): -0.0348 fraction
Change from GRMD Baseline (fraction) (Ciliary neurotrophic factor (CNTF), EDG-5506 treatment to GRMD baseline): 0.2366 fraction
Change from GRMD Baseline (fraction) (Ciliary neurotrophic factor (CNTF), Post-Treatment to GRMD baseline): 0.313 fraction
Change from GRMD Baseline (fraction) (Collectin-11 (COLEC11), EDG-5506 treatment to GRMD baseline): -0.1017 fraction
Change from GRMD Baseline (fraction) (Collectin-11 (COLEC11), Post-Treatment to GRMD baseline): -0.0756 fraction
Change from GRMD Baseline (fraction) (Complement component C7 (C7), EDG-5506 treatment to GRMD baseline): 0.118 fraction
Change from GRMD Baseline (fraction) (Complement component C7 (C7), Post-Treatment to GRMD baseline): 0.1005 fraction
Change from GRMD Baseline (fraction) (Contactin-2 (CNTN2), EDG-5506 treatment to GRMD baseline): 0.1036 fraction
Change from GRMD Baseline (fraction) (Contactin-2 (CNTN2), Post-Treatment to GRMD baseline): -0.068 fraction
Change from GRMD Baseline (fraction) (Cytotoxic T-lymphocyte protein 4 (CTLA4), EDG-5506 treatment to GRMD baseline): 0.1272 fraction
Change from GRMD Baseline (fraction) (Cytotoxic T-lymphocyte protein 4 (CTLA4), Post-Treatment to GRMD baseline): 0.041 fraction
Change from GRMD Baseline (fraction) (Delta-like protein 4 (DLL4), EDG-5506 treatment to GRMD baseline): 0.0825 fraction
Change from GRMD Baseline (fraction) (Delta-like protein 4 (DLL4), Post-Treatment to GRMD baseline): -0.0212 fraction
Change from GRMD Baseline (fraction) (Dickkopf-related protein 3 (DKK3), EDG-5506 treatment to GRMD baseline): 0.0897 fraction
Change from GRMD Baseline (fraction) (Dickkopf-related protein 3 (DKK3), Post-Treatment to GRMD baseline): -0.0042 fraction
3-hydroxyisobutyrate dehydrogenase, mitochondrial (HIBADH): Change from GRMD Baseline (fraction) [1]: 0.1537 fraction
14-3-3 protein beta/alpha (YWHAB): Change from GRMD Baseline (fraction) [1]: -0.0886 fraction
14-3-3 protein sigma (SFN): Change from GRMD Baseline (fraction) [1]: 0.3172 fraction
72 kDa type IV collagenase (MMP2): Change from GRMD Baseline (fraction) [1]: 0.1734 fraction
Adrenomedullin (ADM): Change from GRMD Baseline (fraction) [1]: -0.0855 fraction
Aggrecan core protein (ACAN): Change from GRMD Baseline (fraction) [1]: 0.167 fraction
Alpha-synuclein (SNCA): Change from GRMD Baseline (fraction) [1]: 0.0584 fraction
Apolipoprotein B (APOB): Change from GRMD Baseline (fraction) [1]: 0.074 fraction
Appetite-regulating hormone (GHRL): Change from GRMD Baseline (fraction) [1]: 0.1979 fraction
Atrial natriuretic factor (NPPA): Change from GRMD Baseline (fraction) [1]: 0.1398 fraction
BDNF/NT-3 growth factors receptor (NTRK2): Change from GRMD Baseline (fraction) [1]: 0.1937 fraction
BH3-interacting domain death agonist (BID): Change from GRMD Baseline (fraction) [1]: 0.1126 fraction
Bcl-2-related protein A1 (BCL2A1): Change from GRMD Baseline (fraction) [1]: -0.0911 fraction
Bone morphogenetic protein 6 (BMP6): Change from GRMD Baseline (fraction) [1]: 0.2555 fraction
Bone morphogenetic protein 10 (BMP10): Change from GRMD Baseline (fraction) [1]: 0.1398 fraction
C-X-C motif chemokine 10 (CXCL10): Change from GRMD Baseline (fraction) [1]: 0.1922 fraction
C-type mannose receptor 2 (MRC2): Change from GRMD Baseline (fraction) [1]: 0.1728 fraction
CD166 antigen (ALCAM): Change from GRMD Baseline (fraction) [1]: 0.2333 fraction
Cadherin-5 (CDH5): Change from GRMD Baseline (fraction) [1]: 0.1109 fraction
Carboxypeptidase E (CPE): Change from GRMD Baseline (fraction) [1]: 0.0406 fraction
Cell adhesion molecule 1 (CADM1): Change from GRMD Baseline (fraction) [1]: 0.0424 fraction
Chromogranin-A (CHGA): Change from GRMD Baseline (fraction) [1]: 0.2322 fraction
Ciliary neurotrophic factor receptor subunit alpha (CNTFR): Change from GRMD Baseline (fraction) [1]: 0.1045 fraction
Ck-beta-8-1 (CCL23): Change from GRMD Baseline (fraction) [1]: 0.0708 fraction
Coiled-coil domain-containing protein 80 (CCDC80): Change from GRMD Baseline (fraction) [1]: -0.0672 fraction
Collagen alpha-1(VIII) chain (COL8A1): Change from GRMD Baseline (fraction) [1]: 0.2128 fraction
Collagenase 3 (MMP13): Change from GRMD Baseline (fraction) [1]: -0.0939 fraction
Collectin-12 (COLEC12): Change from GRMD Baseline (fraction) [1]: 0.2006 fraction
Complement component C1q receptor (CD93): Change from GRMD Baseline (fraction) [1]: 0.1785 fraction
Complement decay-accelerating factor (CD55): Change from GRMD Baseline (fraction) [1]: -0.0957 fraction
Contactin-1 (CNTN1): Change from GRMD Baseline (fraction) [1]: 0.0923 fraction
Corticotropin (POMC): Change from GRMD Baseline (fraction) [1]: -0.096 fraction
Cytotoxic and regulatory T-cell molecule (CRTAM): Change from GRMD Baseline (fraction) [1]: -0.015 fraction
Dickkopf-related protein 1 (DKK1): Change from GRMD Baseline (fraction) [1]: 0.2889 fraction
Dickkopf-related protein 4 (DKK4): Change from GRMD Baseline (fraction) [1]: 0.1406 fraction
E3 ubiquitin-protein ligase ZNRF3 (ZNRF3): Change from GRMD Baseline (fraction) [1]: -0.0555 fraction
Ephrin type-A receptor 5 (EPHA5): Change from GRMD Baseline (fraction) [1]: 0.0759 fraction
Ephrin-A2 (EFNA2): Change from GRMD Baseline (fraction) [1]: 0.0899 fraction
Ephrin-A5 (EFNA5): Change from GRMD Baseline (fraction) [1]: 0.0839 fraction
Epidermal growth factor receptor (EGFR): Change from GRMD Baseline (fraction) [1]: 0.2223 fraction
Estradiol 17-beta-dehydrogenase 1 (HSD17B1): Change from GRMD Baseline (fraction) [1]: 0.1223 fraction
Fatty acid-binding protein, epidermal (FABP5): Change from GRMD Baseline (fraction) [1]: 0.0517 fraction
Fc receptor-like protein 3 (FCRL3): Change from GRMD Baseline (fraction) [1]: -0.0177 fraction
GDNF family receptor alpha-2 (GFRA2): Change from GRMD Baseline (fraction) [1]: 0.1299 fraction
Galectin-8 (LGALS8): Change from GRMD Baseline (fraction) [1]: 0.0779 fraction
Galectin-9 (LGALS9): Change from GRMD Baseline (fraction) [1]: -0.04 fraction
Gamma-enolase (ENO2): Change from GRMD Baseline (fraction) [1]: 0.1938 fraction
Gastrin-releasing peptide (GRP): Change from GRMD Baseline (fraction) [1]: 0.0715 fraction
Glutamate carboxypeptidase 2 (FOLH1): Change from GRMD Baseline (fraction) [1]: 0.301 fraction
Glypican-2 (GPC2): Change from GRMD Baseline (fraction) [1]: 0.2818 fraction
Gremlin-1 (GREM1): Change from GRMD Baseline (fraction) [1]: 0.117 fraction
Growth/differentiation factor 8 (MSTN): Change from GRMD Baseline (fraction) [1]: 0.0197 fraction
Growth/differentiation factor 11/8 (GDF11 MSTN): Change from GRMD Baseline (fraction) [1]: 0.039 fraction
Hemoglobin (HBA1 HBB): Change from GRMD Baseline (fraction) [1]: -0.194 fraction
Heparin cofactor 2 (SERPIND1): Change from GRMD Baseline (fraction) [1]: 0.095 fraction
Hepatitis A virus cellular receptor 2 (HAVCR2): Change from GRMD Baseline (fraction) [1]: -0.0356 fraction
High affinity immunoglobulin gamma Fc receptor I (FCGR1A): Change from GRMD Baseline (fraction) [1]: 0.1553 fraction
Histone-lysine N-methyltransferase EHMT2 (EHMT2): Change from GRMD Baseline (fraction) [1]: 0.3323 fraction
Hyaluronan and proteoglycan link protein 1 (HAPLN1): Change from GRMD Baseline (fraction) [1]: 0.0551 fraction
Insulin-like growth factor 1 receptor (IGF1R): Change from GRMD Baseline (fraction) [1]: 0.1691 fraction
Integrin alpha-V: beta-5 complex (ITGAV ITGB5): Change from GRMD Baseline (fraction) [1]: -0.051 fraction
Interleukin-4 receptor subunit alpha (IL4R): Change from GRMD Baseline (fraction) [1]: 0.1823 fraction
Interleukin-18-binding protein (IL18BP): Change from GRMD Baseline (fraction) [1]: 0.0143 fraction
Interstitial collagenase (MMP1): Change from GRMD Baseline (fraction) [1]: 0.0861 fraction
Leucine-rich repeat transmembrane neuronal protein 3 (LRRTM3): Change from GRMD Baseline (fraction) [1]: 0.2512 fraction
Limbic system-associated membrane protein (LSAMP): Change from GRMD Baseline (fraction) [1]: 0.1355 fraction
Lymphocyte activation gene 3 protein (LAG3): Change from GRMD Baseline (fraction) [1]: 0.164 fraction
Lysosome membrane protein 2 (SCARB2): Change from GRMD Baseline (fraction) [1]: 0.1336 fraction
MHC class I polypeptide-related sequence B (MICB): Change from GRMD Baseline (fraction) [1]: 0.2058 fraction
Matrilin-2 (MATN2): Change from GRMD Baseline (fraction) [1]: -0.0022 fraction
Melanoma-derived growth regulatory protein (MIA): Change from GRMD Baseline (fraction) [1]: 0.1875 fraction
Moesin (MSN): Change from GRMD Baseline (fraction) [1]: -0.082 fraction
Muellerian-inhibiting factor (AMH): Change from GRMD Baseline (fraction) [1]: 0.0498 fraction
NKG2D ligand 1 (ULBP1): Change from GRMD Baseline (fraction) [1]: -0.0534 fraction
NT-3 growth factor receptor (NTRK3): Change from GRMD Baseline (fraction) [1]: 0.1168 fraction
Netrin receptor UNC5C (UNC5C): Change from GRMD Baseline (fraction) [1]: 0.03 fraction
Neurogenic locus notch homolog protein 2 (NOTCH2): Change from GRMD Baseline (fraction) [1]: 0.2188 fraction
Neurogenic locus notch homolog protein 3 (NOTCH3): Change from GRMD Baseline (fraction) [1]: 0.0936 fraction
Nuclear receptor subfamily 1 group D member 1 (NR1D1): Change from GRMD Baseline (fraction) [1]: 0.048 fraction
Phospholipase A2 (PLA2G1B): Change from GRMD Baseline (fraction) [1]: 0.0754 fraction
Placenta growth factor (PGF): Change from GRMD Baseline (fraction) [1]: -0.066 fraction
Plasminogen (PLG): Change from GRMD Baseline (fraction) [1]: 0.2052 fraction
PolyUbiquitin K63-linked (UBC): Change from GRMD Baseline (fraction) [1]: 0.2167 fraction
